Values of other authors in patent US20130338178A1, “SIRTUIN MODULATORS AS INHIBITORS OF CYTOMEGALOVIRUS” (THE TRUSTEES OF PRINCETON UNIVERSITY, priority 2011, published 2013).

What was measured:
[1] = target: T1, SIRT1 (Homo sapiens, UniProt Q96EB6); settings: SIRT1 preincubated with NAD+ and compound, means ± SD, cited from earlier work
T1 sequence (Q96EB6 1-747): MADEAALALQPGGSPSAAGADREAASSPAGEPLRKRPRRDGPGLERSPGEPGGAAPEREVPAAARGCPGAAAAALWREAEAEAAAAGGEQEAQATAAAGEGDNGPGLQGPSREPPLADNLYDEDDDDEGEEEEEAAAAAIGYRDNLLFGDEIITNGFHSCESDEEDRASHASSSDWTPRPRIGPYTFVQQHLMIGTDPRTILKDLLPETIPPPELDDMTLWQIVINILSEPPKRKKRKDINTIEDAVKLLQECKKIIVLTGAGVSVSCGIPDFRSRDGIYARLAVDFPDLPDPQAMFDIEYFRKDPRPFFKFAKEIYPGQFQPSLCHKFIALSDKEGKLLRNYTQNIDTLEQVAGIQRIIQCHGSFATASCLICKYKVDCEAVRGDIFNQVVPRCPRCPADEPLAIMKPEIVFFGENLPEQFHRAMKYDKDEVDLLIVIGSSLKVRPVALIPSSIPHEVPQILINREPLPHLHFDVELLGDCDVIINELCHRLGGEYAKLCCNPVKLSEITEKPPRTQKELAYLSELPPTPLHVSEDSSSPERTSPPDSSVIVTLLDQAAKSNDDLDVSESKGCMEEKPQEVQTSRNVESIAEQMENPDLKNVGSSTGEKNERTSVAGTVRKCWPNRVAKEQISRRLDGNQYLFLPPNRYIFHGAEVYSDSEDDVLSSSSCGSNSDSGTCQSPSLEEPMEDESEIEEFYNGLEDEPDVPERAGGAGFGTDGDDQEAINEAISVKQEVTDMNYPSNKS

[2] = system: sirtuin; settings: cited from earlier work; for % Activity at 50 μM / % Activity at 500 μM: residual enzyme activity relative to control with no inhibitor; for IC50: analogs of compound 12

In the case of `N#CCC(=O)NCCCC[C@H](NC(=O)OCc1ccccc1)C(=O)Nc1ccccc1` [2a], the “inhibition at 300 μM (%)” value [1] is listed as 50 ± 7.9%.
For `O=C(CC(F)(F)F)NCCCC[C@H](NC(=O)OCc1ccccc1)C(=O)Nc1ccccc1` [2b], the “inhibition at 300 μM (%)” value [1] is listed as 44 ± 17% and the IC50 [1] is listed as over 300 µM.
In the case of `CSCC(=O)NCCCC[C@H](NC(=O)OCc1ccccc1)C(=O)Nc1ccccc1` [2c], the “inhibition at 300 μM (%)” value [1] is given as 32 ± 20% and the IC50 [1] is given as over 300 µM.
For `C[S+]([O-])CC(=O)NCCCC[C@H](NC(=O)OCc1ccccc1)C(=O)Nc1ccccc1` (some centres unmarked) [2d], the “inhibition at 300 μM (%)” value [1] is listed as 46 ± 3.0% and the IC50 [1] is listed as over 300 µM.
For `CS(=O)(=O)CC(=O)NCCCC[C@H](NC(=O)OCc1ccccc1)C(=O)Nc1ccccc1` [2e], the “inhibition at 300 μM (%)” value [1] is given as 56 ± 1.9%.
For `O=C(Cc1ccccc1C(F)(F)F)NCCCC[C@H](NC(=O)OCc1ccccc1)C(=O)Nc1ccccc1` [2f], the “inhibition at 300 μM (%)” value [1] is listed as 49 ± 13% and the IC50 [1] is listed as over 300 µM.
For `O=C(Cc1ccc(C(F)(F)F)cc1)NCCCC[C@H](NC(=O)OCc1ccccc1)C(=O)Nc1ccccc1` [2g], the “inhibition at 300 μM (%)” value [1] is listed as 41 ± 20% and the IC50 [1] is listed as over 300 µM.
For `O=C(Cc1ccccc1[N+](=O)[O-])NCCCC[C@H](NC(=O)OCc1ccccc1)C(=O)Nc1ccccc1` [2h], the “inhibition at 300 μM (%)” value [1] is given as 40 ± 12% and the IC50 [1] is given as over 300 µM.
In the case of `O=C(Cc1ccc([N+](=O)[O-])cc1)NCCCC[C@H](NC(=O)OCc1ccccc1)C(=O)Nc1ccccc1` [2i], the “inhibition at 300 μM (%)” value [1] is given as 51 ± 17%.
In the case of `COC(=O)CC(=O)NCCCC[C@H](NC(=O)OCc1ccccc1)C(=O)Nc1ccccc1` [2j], the “inhibition at 300 μM (%)” value [1] is listed as 92 ± 1.2% and the IC50 [1] is listed as 35 ± 5.2 µM.
In the case of `CCOC(=O)CC(=O)NCCCC[C@H](NC(=O)OCc1ccccc1)C(=O)Nc1ccccc1` [2k], the “inhibition at 300 μM (%)” value [1] is listed as 91 ± 1.3% and the IC50 [1] is listed as 3.9 ± 0.29 µM.
For `CCCOC(=O)CC(=O)NCCCC[C@H](NC(=O)OCc1ccccc1)C(=O)Nc1ccccc1` [2l], the “inhibition at 300 μM (%)” value [1] is given as 71 ± 0.72% and the IC50 [1] is given as 62 ± 3.7 µM.
In the case of `CC(C)OC(=O)CC(=O)NCCCC[C@H](NC(=O)OCc1ccccc1)C(=O)Nc1ccccc1` [2m], the “inhibition at 300 μM (%)” value [1] is listed as 72 ± 5.1% and the IC50 [1] is listed as 47 ± 5.3 µM.
For `CCCCOC(=O)CC(=O)NCCCC[C@H](NC(=O)OCc1ccccc1)C(=O)Nc1ccccc1` [2n], the “inhibition at 300 μM (%)” value [1] is given as 64 ± 6.1% and the IC50 [1] is given as 73 ± 3.2 µM.
In the case of `CC(C)(C)OC(=O)CC(=O)NCCCC[C@H](NC(=O)OCc1ccccc1)C(=O)Nc1ccccc1` [2o], the “inhibition at 300 μM (%)” value [1] is listed as 6.0 ± 0.64% and the IC50 [1] is listed as over 300 µM.
For `O=C(CC(=O)OCC1CC1)NCCCC[C@H](NC(=O)OCc1ccccc1)C(=O)Nc1ccccc1` [2p], the “inhibition at 300 μM (%)” value [1] is given as 93 ± 1.2% and the IC50 [1] is given as 14 ± 2.6 µM.
In the case of `O=C(CC(=O)OCC(F)(F)F)NCCCC[C@H](NC(=O)OCc1ccccc1)C(=O)Nc1ccccc1` [2q], the “inhibition at 300 μM (%)” value [1] is listed as 94 ± 1.5% and the IC50 [1] is listed as 15 ± 3.1 µM.
For `O=C(CC(=O)OCc1ccccc1)NCCCC[C@H](NC(=O)OCc1ccccc1)C(=O)Nc1ccccc1` [2r], the “inhibition at 300 μM (%)” value [1] is given as 71 ± 4.3% and the IC50 [1] is given as 96 ± 4.8 µM.
For `NC(=O)CC(=O)NCCCC[C@H](NC(=O)OCc1ccccc1)C(=O)Nc1ccccc1` [2s], the “inhibition at 300 μM (%)” value [1] is listed as 25 ± 2.3% and the IC50 [1] is listed as over 300 µM.
In the case of `CNC(=O)CC(=O)NCCCC[C@H](NC(=O)OCc1ccccc1)C(=O)Nc1ccccc1` [2t], the “inhibition at 300 μM (%)” value [1] is listed as 24 ± 2.5% and the IC50 [1] is listed as over 300 µM.
For `CN(C)C(=O)CC(=O)NCCCC[C@H](NC(=O)OCc1ccccc1)C(=O)Nc1ccccc1` [2u], the “inhibition at 300 μM (%)” value [1] is listed as 20 ± 1.3% and the IC50 [1] is listed as over 300 µM.
In the case of `CC(=O)CC(=O)NCCCC[C@H](NC(=O)OCc1ccccc1)C(=O)Nc1ccccc1` [2v], the “inhibition at 300 μM (%)” value [1] is given as 45 ± 6.0% and the IC50 [1] is given as over 300 µM.
For `CCC(=O)CC(=O)NCCCC[C@H](NC(=O)OCc1ccccc1)C(=O)Nc1ccccc1` [2w], the “inhibition at 300 μM (%)” value [1] is given as 67 ± 1.2% and the IC50 [1] is given as 88 ± 3.9 µM.
For `CCCC(=O)CC(=O)NCCCC[C@H](NC(=O)OCc1ccccc1)C(=O)Nc1ccccc1` [2x], the “inhibition at 300 μM (%)” value [1] is listed as 78 ± 5.2%.
In the case of `O=C(CC(=O)C(F)(F)F)NCCCC[C@H](NC(=O)OCc1ccccc1)C(=O)Nc1ccccc1` [2y], the “inhibition at 300 μM (%)” value [1] is listed as 7.9 ± 0.92% and the IC50 [1] is listed as over 300 µM.
In the case of `O=C(CC(=O)c1ccccc1)NCCCC[C@H](NC(=O)OCc1ccccc1)C(=O)Nc1ccccc1` [2z], the “inhibition at 300 μM (%)” value [1] is listed as 37 ± 7.4% and the IC50 [1] is listed as over 300 µM.
In the case of `C#CC1c2cc(O)c(OC)cc2CCN1C` (centres unmarked) [7-52], the “% Activity at 50 μM” value [2] is listed as 100% and the “% Activity at 500 μM” value [2] is listed as 86%.
For `COCC#CC1(C)c2cc(O)c(OC)cc2CCN1C` (centres unmarked) [7-123], the “% Activity at 50 μM” value [2] is given as 100% and the “% Activity at 500 μM” value [2] is given as 100%.
In the case of `COCCCC1c2cc(O)c(OC)cc2CCN1C` (centres unmarked) [7-128], the “% Activity at 50 μM” value [2] is given as 99% and the “% Activity at 500 μM” value [2] is given as 92%.
In the case of `COC/C=C\C1c2cc(O)c(OC)cc2CCN1C` (centres unmarked) [7-129], the “% Activity at 50 μM” value [2] is listed as 97% and the “% Activity at 500 μM” value [2] is listed as 94%.
For `COc1cc2c(cc1O)CN(C)CC2` [7-133], the “% Activity at 50 μM” value [2] is listed as 100% and the “% Activity at 500 μM” value [2] is listed as 98%.
In the case of `COCC#CC1c2cc(O)c(OC)cc2CCN1Cc1ccc(OC)cc1` (centres unmarked) [Compound 14b], the “% Activity at 50 μM” value [2] is given as 92% and the “% Activity at 500 μM” value [2] is given as 2%.
For `C[S+]([O-])CCC(C(=O)O)N1C(=O)c2ccccc2C1=O` (centres unmarked) [compound 00032], the IC50 [2] is given as “No inhibition”.
In the case of `CC(C)C(=O)CCN1C(=O)c2ccccc2C1=O` [compound 04265], the IC50 [2] is given as “No inhibition”.
For `O=C(O)CCN1C(=O)c2cc(Cl)c(Cl)cc2C1=O` [compound 39008], the IC50 [2] is listed as “No inhibition”.
In the case of `Nc1ccc2c(c1)C(=O)N(CCC(=O)O)C2` [compound 42071], the IC50 [2] is listed as “No inhibition”.
In the case of `O=C(O)CCCN1C(=O)c2ccccc2C1=O` [compound 47032], the IC50 [2] is listed as “No inhibition”.
For `O=C(O)CCN1C(=O)c2ccc(-c3nc4ccccc4c(=O)o3)cc2C1=O` [compound 47054], the IC50 [2] is listed as “No inhibition”.
In the case of `Nc1cccc(Cc2cccc(N)c2)c1` [compound 56413], the “% Activity at 50 μM” value [2] is given as 100% and the “% Activity at 500 μM” value [2] is given as 100%.
In the case of `Oc1ccc(Cc2ccccc2)cc1` [compound 72030], the “% Activity at 50 μM” value [2] is given as 100% and the “% Activity at 500 μM” value [2] is given as 88%.
For `O=C1c2ccccc2C(=O)N1CCBr` [compound 91032], the IC50 [2] is listed as “No inhibition”.
For `OC(c1ccccc1)c1ccc(C(F)(F)F)cc1` (centres unmarked) [compound 97211], the “% Activity at 50 μM” value [2] is given as 100% and the “% Activity at 500 μM” value [2] is given as 81%.
In the case of `Cc1cc(Cc2cc(C)c(O)c(C)c2)cc(C)c1O` [compound 97252], the “% Activity at 50 μM” value [2] is listed as 89% and the “% Activity at 500 μM” value [2] is listed as 43%.
In the case of `Cc1cccc(OCC(=O)Oc2ccc3c(C)cc(=O)oc3c2)c1` [compound 5140108], the “% Activity at 50 μM” value [2] is listed as 90% and the “% Activity at 500 μM” value [2] is listed as 13%.
In the case of `Cc1cc(=O)oc2cc(OC(=O)COc3ccccc3)ccc12` [compound 5237467], the “% Activity at 50 μM” value [2] is given as 91% and the “% Activity at 500 μM” value [2] is given as 45%.
In the case of `Cc1cc(=O)oc2cc(OC(=O)CCCOc3ccc(Cl)cc3Cl)ccc12` [compound 5366302], the “% Activity at 50 μM” value [2] is given as 90% and the “% Activity at 500 μM” value [2] is given as 68%.
In the case of `CCc1ccc(OCCCC(=O)Oc2ccc3c(C)cc(=O)oc3c2)cc1` [compound 6802623], the “% Activity at 50 μM” value [2] is given as 86% and the “% Activity at 500 μM” value [2] is given as 53%.
In the case of `Cc1ccc(OCCCC(=O)Oc2ccc3c(C)cc(=O)oc3c2)cc1` [compound 6836332], the “% Activity at 50 μM” value [2] is listed as 99% and the “% Activity at 500 μM” value [2] is listed as 57%.
In the case of `COc1ccc(OCCCC(=O)Oc2ccc3c(C)cc(=O)oc3c2)cc1` [compound 6959933], the “% Activity at 50 μM” value [2] is given as 93% and the “% Activity at 500 μM” value [2] is given as 35%.
In the case of `Cc1ccc(OCCCC(=O)Oc2ccc3c(C)cc(=O)oc3c2)c(C)c1` [compound 7988362], the “% Activity at 50 μM” value [2] is listed as 90% and the “% Activity at 500 μM” value [2] is listed as 51%.
